# According to patent US20240336565A1, “SOLID FORMS OF OSANETANT” (Acer Therapeutics, Inc., priority 2021, published 2024):
# “Also recorded” adds a separate entry of the source.
# What was measured:
# [1] = Long term stability: oxidation (6% H2O2) at 60° C.; assay type: physicochemical; conditions: 6% H2O2, 60° C., up to 14 days
# Procedure: (§1) Osanetant p-toluenesulfonic acid Form 1 and osanetant benzenesulfonic acid Form 1 were tested for long-term stability across a number of different conditions, as detailed below.
# (§2) Oxidation at 60° C.—Osanetant p-toluenesulfonic acid Form 1 and osanetant benzenesulfonic acid Form 1 were prepared at an osanetant content 10 times the normal working concentration then added to HPLC vials containing 6% H2O2 and stored in a darkened oven at 60° C. Samples were diluted to 2 mg/mL for analysis and were taken after T=1, 2, 4, 7, and 14 days storage. […] The purity of the resulting material is described in Table 47: […]
# [2] = Long term stability: base (2M NaOH) at 60° C.; assay type: physicochemical; conditions: 2M NaOH, 60° C., up to 14 days
# Procedure: as §1
# as §2, with “Base” for “Oxidation”, “2M NaOH” for “6% H2O2”, “45:” for “47:”
# [3] = Disproportionation study (stirring in water, XRPD, pH of liquor); assay type: physicochemical; conditions: 10 mg in 1 mL of water, 24 h at 25° C.
# Procedure: After 24 h total, a white slurry was observed and was isolated by centrifugation. The solids were analyzed by XRPD. The pH of the filtered liquor was measured at 5.63. […] After 24 h total, a white slurry was observed and was isolated by centrifugation. The solids were analyzed by XRPD. The pH of the filtered liquor was measured (pH=5.09).
# [4] = Thermodynamic solubility in water and pH buffers
smiles,measurement,setting,value
"CC(=O)N(C)C1(c2ccccc2)CCN(CCC[C@]2(c3ccc(Cl)c(Cl)c3)CCCN(C(=O)c3ccccc3)C2)CC1.Cc1ccc(S(=O)(=O)O)cc1 [osanetant p-toluenesulfonic acid Form 1, (R)-N-(1-(3-(1-benzoyl-3-(3,4-dichlorophenyl)piperidin-3-yl)propyl)-4-phenylpiperidin-4-yl)-N-methylacetamide p-toluenesulfonic acid]",degradation on storage (purity),[1],lack of degradation
same,degradation on storage (purity),[2],lack of degradation
same,XRPD form / disproportionation after stirring in water,[3],no change in form; also recorded: did not disproportionate
same,pH of the filtered liquor,[3],5.63
same,Solubility in water and pH buffers,[4],low
